Results taken from patent US5210075A, “Interleukin 6 antagonist peptides” (Tanabe Seiyaku Co., Ltd., priority 1990, dated 1993).

Test system: IL-6 mediated proliferation of B9.9 cells
Assay: IL-6-dependent B9.9 cell proliferation assay
Assay type: cell-based, mouse
Details: peptide concentration = 250 μM
From the text: Peptides according to the invention were synthesized by the solid phase peptide synthesis method (Merrifield, J. Am. Chem. Soc. 85:2149, 1963). The amino acid numbering of peptides derived from the IL-6 receptor (IL-6R) sequence is based on the published sequence of Yamasaki, et al, (Science 241:825, 1988), and numbering of peptides derived from the IL-6 sequence is based on the sequence of IL-6 as published by Hirano, et al. (Nature 324:73, 1986). The numbering refers to the position of the amino acids in the mature protein after excision of the signal sequence. Activity was established in an IL-6-dependent B9.9 cell proliferation assay as described hereunder.
IL-6 antagonist activity of the subject peptides was measured using the IL-6 dependent B9.9 hybridoma cell line as described in Brakenhoff et al., J. Immunol. […]
1×10^4 cells were cultured in presence of 4-fold serial dilutions (1:16 to 1:65,536) of F-IL-6 in RPMI supplemented with 10% fetal calf serum, 2 mM L-glutamine, and 5 ×10^-5 M 2-mercaptoethanol in flat bottom microtiter plates. After 2 days the cells were incubated for 4 hours with 3-(4,5-dimethylthiazol-2-yl)-diphenyl tetrazolium bromide (MTT) and the absorbance was measured at 570-650 nm as described in Mosmann, J. Immunol. […] One unit of IL-6 was defined as the amount of IL-6 required to obtain half maximal proliferation and was calculated by probit analysis. […]

Substance	Percent Inhibition of IL-6 mediated proliferation of B9.9 cells [%]
Ac-GQLRAQEEFGQGE-NH2 [Ac-GQLRAQEEFGQGE-NH2]	92 ± 6
GAAAENNNLNLP	29 ± 19
